From US20090305266A1, “TEST FOR OVARIAN CANCER BY DETECTING ABNORMALITY IN FANCD2 PATHWAY” (priority 2006, published 2009)

Key:
Assay type in all cases: cell-based, human
[1] = test system: SV40-transformed OV-CA4 ovarian epithelial cells; test: MMC/DEB-induced radial formation, SV40-transformed OV-CA4 cells with and without FANCD2 complementation (FIG. 4B); settings: 40 ng/ml MMC or 200 ng/mL DEB, 48 hours, 50 metaphases
Method: (§1) The ovarian cells were scraped from the ovarian surface and enzymatically disaggregated with Collagenase I (GIBCO-Invitrogen, Grand Island, N.Y.) for 4 hours. The cells were washed in RPMI 1640 medium (GIBCO-Invitrogen) and plated in 25 cm^2 flasks coated with collagen in RPMI 1640 supplemented with 20% FCS (Hyclone, Logan, Utah), 10 μg/ml insulin (Sigma, St. Louis, Mo.) and 10 ng/ml EGF (R&D Systems, Minneapolis, Minn.). Studies were performed on primary cells and immortalized cells. Ovarian cells were immortalized by transduction with a retrovirus expressing SV40 large T-antigen obtained from cell line Ψ-2/U195 (Saito et al., Mutat. Res. 294:255-62, 1993; Williams et al., Mol. Cell Bio. 8:3864-71, 1988). SV40-transformed ovarian epithelial cells were transduced with pMMP retroviral vectors containing full-length FANCD2 cDNA produced from the AM12/RVD2 cell line (Naf et al., Mol. Cell Biol. 18:5952-60, 1998; Kuang et al., Blood 96:1625-32, 2000).
(§2) These cultures were then harvested after a 2 hour exposure to 0.25 μg/ml Colcemid (Sigma). Following a 10 minute treatment with hypotonic solution (0.075 M KCl, 5% fetal calf serum) the cells were fixed with a 3:1 mixture of methanol:acetic acid. Slides were stained with Wright's stain, and breaks and radial formation was assessed by counting the number of breaks and radials in a representative number of cells.

[2] = test system: peripheral blood mono-lymphocytes (PBML); test: MMC/DEB-induced chromosomal breakage and radial formation in PHA-stimulated peripheral blood lymphocytes;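 note: 40 ng/mL MMC and 200 ng/mL DEB for 48 hours at 37 °C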
Method: Peripheral blood was obtained from all subjects.
as §2

[3] = test system: SV40-transformed OV-HR2 ovarian epithelial cells; test: MMC/DEB-induced radial formation, SV40-transformed OV-HR2 cells with and without FANCD2 complementation (FIG. 4B); settings: 40 ng/ml MMC or 200 ng/mL DEB, 48 hours, 50 metaphases
Method: as §1, §2

[4] = test system: ovarian surface epithelium (OSE) cells; test: MMC/DEB-induced chromosomal breakage and radial formation in primary ovarian epithelial cell cultures; settings: 40 ng/ml MMC or 200 ng/ml DEB, 48 hours
Method: as §1, §2

[5] = OV-CA4, FANCD2-complemented (retroviral FANCD2 cDNA)
[6] = OV-CA4, FANCD2-deficient (before FANCD2 expression)
[7] = lymphocytes of case OV-CA 1 (carcinoma)
[8] = lymphocytes of case OV-CA 2 (carcinoma)
[9] = lymphocytes of case OV-CA 3 (carcinoma)
[10] = lymphocytes of case OV-CA 4 (carcinoma)
[11] = lymphocytes of case OV-CA 5 (carcinoma)
[12] = lymphocytes of case OV-CA 6 (carcinoma)
[13] = lymphocytes of case OV-CA 7 (carcinoma)
[14] = lymphocytes of case OV-CA 8 (carcinoma)
[15] = lymphocytes of case OV-HR 1 (high-risk)
[16] = lymphocytes of case OV-HR 2 (high-risk)
[17] = lymphocytes of case OV-HR 3 (high-risk)
[18] = lymphocytes of case OV-HR 4 L (high-risk)
[19] = lymphocytes of case OV-HR 5 L (high-risk)
[20] = lymphocytes of case OV-HR 5 R (high-risk)
[21] = lymphocytes of case OV-NL 3 (normal)
[22] = lymphocytes of case OV-NL 9 L (normal)
[23] = lymphocytes of case OV-NL 9 R (normal)
[24] = OV-HR2, FANCD2-complemented (retroviral FANCD2 cDNA)
[25] = OV-HR2, FANCD2-deficient (before FANCD2 expression)

Q: How did the “fraction of MMC- and DEB-exposed cells with radial forms” value (shortened to “fraction of MMC- and DEB-exposed cells”) [1, 5] turn out when `C1OC1C1CO1` (stereo not shown) [DEB, Diepoxybutane] was run?
A: 20%

Q: What about the “fraction of MMC- and DEB-exposed cells” value [1, 6] of the same molecule?
A: 48%

Q: What about the “Radials (%) PBML MMC/DEB” value [2, 7] of the same molecule?
A: 0%

Q: And the “Radials (%) PBML MMC/DEB” value [2, 8]?
A: 0%

Q: What about the “Radials (%) PBML MMC/DEB” value [2, 9] of the same molecule?
A: 1/1%

Q: And the “Radials (%) PBML MMC/DEB” value [2, 10]?
A: 2%

Q: And the “Radials (%) PBML MMC/DEB” value [2, 11]?
A: 0%

Q: What about the “Radials (%) PBML MMC/DEB” value [2, 12] of the same molecule?
A: 1/1%

Q: And the “Radials (%) PBML MMC/DEB” value [2, 13]?
A: 1%

Q: What about the “Radials (%) PBML MMC/DEB” value [2, 14] of the same molecule?
A: 1%

Q: What about the “Radials (%) PBML MMC/DEB” value [2, 15] of the same molecule?
A: 0/0%

Q: And the “Radials (%) PBML MMC/DEB” value [2, 16]?
A: 0/0%

Q: What about the “Radials (%) PBML MMC/DEB” value [2, 17] of the same molecule?
A: 0%

Q: What about the “Radials (%) PBML MMC/DEB” value [2, 18] of the same molecule?
A: 0/0%

Q: What about the “Radials (%) PBML MMC/DEB” value [2, 19] of the same molecule?
A: 1%

Q: What about the “Radials (%) PBML MMC/DEB” value [2, 20] of the same molecule?
A: 0/0%

Q: What about the “Radials (%) PBML MMC/DEB” value [2, 21] of the same molecule?
A: 0/0%

Q: What about the “Radials (%) PBML MMC/DEB” value [2, 22] of the same molecule?
A: 0/0%

Q: And the “Radials (%) PBML MMC/DEB” value [2, 23]?
A: 0/0%

Q: And the “fraction of MMC- and DEB-exposed cells” value [3, 24]?
A: 10%

Q: And the “fraction of MMC- and DEB-exposed cells” value [3, 25]?
A: 30%

Q: And the “Radials (%) OSE MMC/DEB” value ([4]; case OV-CA 1 (carcinoma))?
A: 16%

Q: And the “Radials (%) OSE MMC/DEB” value ([4]; case OV-CA 2 (carcinoma))?
A: 10%

Q: What about the “Radials (%) OSE MMC/DEB” value ([4]; case OV-CA 3 (carcinoma)) of the same molecule?
A: 14%

Q: And the “Radials (%) OSE MMC/DEB” value ([4]; case OV-CA 4 (carcinoma))?
A: 48%

Q: What about the “Radials (%) OSE MMC/DEB” value ([4]; case OV-CA 5 (carcinoma)) of the same molecule?
A: 2%

Q: And the “Radials (%) OSE MMC/DEB” value ([4]; case OV-HR 1 (high-risk))?
A: 14%

Q: What about the “Radials (%) OSE MMC/DEB” value ([4]; case OV-HR 2 (high-risk)) of the same molecule?
A: 64%

Q: And the “Radials (%) OSE MMC/DEB” value ([4]; case OV-HR 3 (high-risk))?
A: 55%

Q: What about the “Radials (%) OSE MMC/DEB” value ([4]; case OV-HR 4 L (high-risk)) of the same molecule?
A: 50%

Q: And the “Radials (%) OSE MMC/DEB” value ([4]; case OV-HR 5 L (high-risk))?
A: 20%

Q: What about the “Radials (%) OSE MMC/DEB” value ([4]; case OV-HR 5 R (high-risk)) of the same molecule?
A: 12%

Q: And the “Radials (%) OSE MMC/DEB” value ([4]; case OV-NL 1 (normal))?
A: 0/0%

Q: What about the “Radials (%) OSE MMC/DEB” value ([4]; case OV-NL 2 (normal)) of the same molecule?
A: 0/0%

Q: And the “Radials (%) OSE MMC/DEB” value ([4]; case OV-NL 3 (normal))?
A: 0%

Q: What about the “Radials (%) OSE MMC/DEB” value ([4]; case OV-NL 4 (normal)) of the same molecule?
A: 1%

Q: And the “Radials (%) OSE MMC/DEB” value ([4]; case OV-NL 5 (normal))?
A: 1/1%

Q: And the “Radials (%) OSE MMC/DEB” value ([4]; case OV-NL 6 L (normal))?
A: 0/0%

Q: And the “Radials (%) OSE MMC/DEB” value ([4]; case OV-NL 6 R (normal))?
A: 0/0%

Q: What about the “Radials (%) OSE MMC/DEB” value ([4]; case OV-NL 7 (normal)) of the same molecule?
A: 2%

Q: What about the “Radials (%) OSE MMC/DEB” value ([4]; case OV-NL 8 (normal)) of the same molecule?
A: 3/3%

Q: What about the “Radials (%) OSE MMC/DEB” value ([4]; case OV-NL 9 L (normal)) of the same molecule?
A: 0/0%

Q: What about the “Radials (%) OSE MMC/DEB” value ([4]; case OV-NL 9 R (normal)) of the same molecule?
A: 0/0%

Q: How did the “fraction of MMC- and DEB-exposed cells” value [1, 5] turn out when `CO[C@@]12[C@H](COC(N)=O)C3=C(C(=O)C(C)=C(N)C3=O)N1C[C@@H]1N[C@@H]12` [MMC, Mitomycin C] was run?
A: 56%

Q: And the “fraction of MMC- and DEB-exposed cells” value [1, 6]?
A: 70%

Q: What about the “Radials (%) PBML MMC/DEB” value [2, 7] of the same molecule?
A: 2%

Q: What about the “Radials (%) PBML MMC/DEB” value [2, 8] of the same molecule?
A: 1%

Q: What about the “Radials (%) PBML MMC/DEB” value [2, 9] of the same molecule?
A: 1/1%

Q: And the “Radials (%) PBML MMC/DEB” value [2, 10]?
A: 4%

Q: What about the “Radials (%) PBML MMC/DEB” value [2, 11] of the same molecule?
A: 2%

Q: And the “Radials (%) PBML MMC/DEB” value [2, 12]?
A: 1/1%

Q: What about the “Radials (%) PBML MMC/DEB” value [2, 13] of the same molecule?
A: 0%

Q: And the “Radials (%) PBML MMC/DEB” value [2, 14]?
A: 3%

Q: And the “Radials (%) PBML MMC/DEB” value [2, 15]?
A: 0/0%

Q: And the “Radials (%) PBML MMC/DEB” value [2, 16]?
A: 0/0%

Q: And the “Radials (%) PBML MMC/DEB” value [2, 17]?
A: 1%

Q: What about the “Radials (%) PBML MMC/DEB” value [2, 18] of the same molecule?
A: 0/0%

Q: What about the “Radials (%) PBML MMC/DEB” value [2, 19] of the same molecule?
A: 0%

Q: What about the “Radials (%) PBML MMC/DEB” value [2, 20] of the same molecule?
A: 0/0%

Q: What about the “Radials (%) PBML MMC/DEB” value [2, 21] of the same molecule?
A: 0/0%

Q: What about the “Radials (%) PBML MMC/DEB” value ([2]; lymphocytes of case OV-NL 6 L (normal)) of the same molecule?
A: 0/N.D. %

Q: What about the “Radials (%) PBML MMC/DEB” value ([2]; lymphocytes of case OV-NL 6 R (normal)) of the same molecule?
A: 0/N.D. %

Q: And the “Radials (%) PBML MMC/DEB” value [2, 22]?
A: 0/0%

Q: What about the “Radials (%) PBML MMC/DEB” value [2, 23] of the same molecule?
A: 0/0%

Q: And the “fraction of MMC- and DEB-exposed cells” value [3, 24]?
A: 32%

Q: And the “fraction of MMC- and DEB-exposed cells” value [3, 25]?
A: 60%

Q: And the “Radials (%) OSE MMC/DEB” value ([4]; case OV-CA 1 (carcinoma))?
A: 14%

Q: And the “Radials (%) OSE MMC/DEB” value ([4]; case OV-CA 2 (carcinoma))?
A: 12%

Q: What about the “Radials (%) OSE MMC/DEB” value ([4]; case OV-CA 3 (carcinoma)) of the same molecule?
A: 16%

Q: And the “Radials (%) OSE MMC/DEB” value ([4]; case OV-CA 4 (carcinoma))?
A: 70%

Q: And the “Radials (%) OSE MMC/DEB” value ([4]; case OV-CA 5 (carcinoma))?
A: 12%

Q: What about the “Radials (%) OSE MMC/DEB” value ([4]; case OV-CA 6 (carcinoma)) of the same molecule?
A: 66/N.D. %

Q: And the “Radials (%) OSE MMC/DEB” value ([4]; case OV-CA 7 (carcinoma))?
A: 0/N.D. %

Q: And the “Radials (%) OSE MMC/DEB” value ([4]; case OV-CA 8 (carcinoma))?
A: 33/N.D. %

Q: What about the “Radials (%) OSE MMC/DEB” value ([4]; case OV-HR 1 (high-risk)) of the same molecule?
A: 10%

Q: And the “Radials (%) OSE MMC/DEB” value ([4]; case OV-HR 2 (high-risk))?
A: 50%

Q: And the “Radials (%) OSE MMC/DEB” value ([4]; case OV-HR 3 (high-risk))?
A: 64%

Q: What about the “Radials (%) OSE MMC/DEB” value ([4]; case OV-HR 4 L (high-risk)) of the same molecule?
A: 66%

Q: What about the “Radials (%) OSE MMC/DEB” value ([4]; case OV-HR 5 L (high-risk)) of the same molecule?
A: 47%

Q: And the “Radials (%) OSE MMC/DEB” value ([4]; case OV-HR 5 R (high-risk))?
A: 30%

Q: And the “Radials (%) OSE MMC/DEB” value ([4]; case OV-NL 1 (normal))?
A: 0/0%

Q: What about the “Radials (%) OSE MMC/DEB” value ([4]; case OV-NL 2 (normal)) of the same molecule?
A: 0/0%

Q: And the “Radials (%) OSE MMC/DEB” value ([4]; case OV-NL 3 (normal))?
A: 2%

Q: And the “Radials (%) OSE MMC/DEB” value ([4]; case OV-NL 4 (normal))?
A: 4%

Q: And the “Radials (%) OSE MMC/DEB” value ([4]; case OV-NL 5 (normal))?
A: 1/1%

Q: And the “Radials (%) OSE MMC/DEB” value ([4]; case OV-NL 6 L (normal))?
A: 0/0%

Q: What about the “Radials (%) OSE MMC/DEB” value ([4]; case OV-NL 6 R (normal)) of the same molecule?
A: 0/0%

Q: And the “Radials (%) OSE MMC/DEB” value ([4]; case OV-NL 7 (normal))?
A: 1%

Q: What about the “Radials (%) OSE MMC/DEB” value ([4]; case OV-NL 8 (normal)) of the same molecule?
A: 3/3%

Q: And the “Radials (%) OSE MMC/DEB” value ([4]; case OV-NL 9 L (normal))?
A: 0/0%

Q: What about the “Radials (%) OSE MMC/DEB” value ([4]; case OV-NL 9 R (normal)) of the same molecule?
A: 0/0%
